How the values were obtained:
[1] = molecular target: T1, glucosylceramide synthase (GCS) (Homo sapiens, UniProt Q16739); assay: GCS enzyme inhibition assay (A549 cell lysate, NBD C6-ceramide, HPLC fluorescence); format: biochemical; conditions: inhibitory activity against GCS, 37° C., 90 minutes
T1 construct: The obtained supernatant was used; host or cells: A549 cells (lysate supernatant after sonication)
T1 sequence (Q16739 1-394): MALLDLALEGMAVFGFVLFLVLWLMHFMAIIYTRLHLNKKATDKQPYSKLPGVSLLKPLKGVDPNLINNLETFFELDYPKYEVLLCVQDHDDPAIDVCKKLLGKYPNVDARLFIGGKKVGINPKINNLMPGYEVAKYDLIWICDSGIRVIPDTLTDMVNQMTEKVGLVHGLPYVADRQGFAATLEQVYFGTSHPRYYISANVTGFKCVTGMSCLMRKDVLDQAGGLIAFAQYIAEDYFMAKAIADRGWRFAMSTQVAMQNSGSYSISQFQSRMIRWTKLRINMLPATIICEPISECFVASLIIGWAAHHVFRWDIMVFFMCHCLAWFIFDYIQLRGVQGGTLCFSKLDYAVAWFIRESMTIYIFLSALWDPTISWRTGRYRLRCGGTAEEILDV
Method in brief: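 Percent GCS activity was derived from the GlcCer share of Cer plus GlcCer areas, scaled from ibiglustat (0%) to DMSO (100%). Enzyme came from sonicated A549 lysate in 50 mM HEPES pH 7.3; 90 min incubation at 37° C, chloroform/methanol stop and extraction.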

[2] = test system: GM1 production in Jurkat cells; assay: cells; format: cell-based; conditions: Homo sapiens, Jurkat, 72 h

Compound | IC50 [1] | IC50 [2]
COc1ccc2cc(-c3ccc4c(c3)OCC(C)(C)C4NC(=O)O[C@@H]3CN4CCC3CC4)ccc2c1 (stereo partly drawn) [Example 145, (S)-quinuclidin-3-yl (7-(6-methoxynaphthalen-2-yl)-3,3-dimethylchroman-4-yl)carbamate] | 0.69 nM | 0.08 nM
CC1(C)COc2cc(-c3ccc(C(F)(F)F)cc3)ccc2C1NC(=O)O[C@@H]1CN2CCC1CC2 (stereo partly drawn) [Example 211, (S)-quinuclidin-3-yl (3,3-dimethyl-7-(4-(trifluoromethyl)phenyl)chroman-4-yl)carbamate] | 0.71 nM | 1.41 nM
Cc1cccc(-c2ccc3c(c2)OCC(C)(C)C3NC(=O)O[C@@H]2CN3CCC2CC3)c1 (stereo partly drawn) [Example 268, (S)-quinuclidin-3-yl (3,3-dimethyl-7-(m-tolyl)chroman-4-yl)carbamate] | 0.62 nM | 1.4 nM
Cc1ccccc1-c1ccc2c(c1)OCC(C)(C)C2NC(=O)O[C@@H]1CN2CCC1CC2 (stereo partly drawn) [Example 270, (S)-quinuclidin-3-yl (3,3-dimethyl-7-(o-tolyl)chroman-4-yl)carbamate] | 0.78 nM | 1 nM
O=C(NC1CCOc2cc(-c3cccc(OC(F)(F)F)c3)ccc21)O[C@@H]1CN2CCC1CC2 (stereo partly drawn) [Example 4, (S)-quinuclidin-3-yl (7-(3-(trifluoromethoxy)phenyl)chroman-4-yl)carbamate] | 0.7 nM | 1.08 nM
COc1ccc(Cl)c(-c2ccc3c(c2)OCC(C)(C)C3NC(=O)O[C@@H]2CN3CCC2CC3)c1 (stereo partly drawn) [Example 153, (S)-quinuclidin-3-yl (7-(2-chloro-5-methoxyphenyl)-3,3-dimethylchroman-4-yl)carbamate] | 0.48 nM | 0.06 nM
CC1(C)COc2cc(-c3ccc(C(F)(F)F)cc3F)ccc2C1NC(=O)O[C@@H]1CN2CCC1CC2 (stereo partly drawn) [Example 262, (S)-quinuclidin-3-yl (7-(2-fluoro-4-(trifluoromethyl)phenyl)-3,3-dimethylchroman-4-yl)carbamate] | 0.52 nM | 3.7 nM
COc1cc2c(cc1-c1cccc(C(C)C)c1)OCC(C)(C)C2NC(=O)O[C@@H]1CN2CCC1CC2 (stereo partly drawn) [Example 358, (S)-quinuclidin-3-yl (7-(3-isopropylphenyl)-6-methoxy-3,3-dimethylchroman-4-yl)carbamate] | 0.61 nM | 2 nM
CCOc1ccc(-c2ccc3c(c2)OCCC3(C)NC(=O)O[C@@H]2CN3CCC2CC3)cc1 (stereo partly drawn) [Example 302, (S)-quinuclidin-3-yl (7-(4-ethoxyphenyl)-4-methylchroman-4-yl)carbamate] | 0.8 nM | 2.6 nM
CC1(C)COc2cc(/C=C/c3ccc(F)cc3F)ccc2C1NC(=O)O[C@@H]1CN2CCC1CC2 (stereo partly drawn) [Example 286, (S)-quinuclidin-3-yl (7-((E)-2,4-difluorostyryl)-3,3-dimethylchroman-4-yl)carbamate] | 0.93 nM | 3.3 nM
COc1ccc(-c2cc3c(cc2OC)C(NC(=O)O[C@@H]2CN4CCC2CC4)C(C)(C)CO3)c(F)c1 (stereo partly drawn) [Example 360, (S)-quinuclidin-3-yl (7-(2-fluoro-4-methoxyphenyl)-6-methoxy-3,3-dimethylchroman-4-yl)carbamate] | 0.55 nM | 10 nM
CC1(C)COc2cc(-c3ccc4c(c3)OCO4)ccc2C1NC(=O)O[C@@H]1CN2CCC1CC2 (stereo partly drawn) [Example 249, (S)-quinuclidin-3-yl (7-(benzo[d][1,3]dioxol-5-yl)-3,3-dimethylchroman-4-yl)carbamate] | 0.39 nM | 4 nM
O=C(NC1CCSc2cc(-c3cccc(F)c3)ccc21)O[C@@H]1CN2CCC1CC2 (stereo partly drawn) [Example 317, (S)-quinuclidin-3-yl (7-(3-fluorophenyl)thiochroman-4-yl)carbamate] | 2.94 nM | 13.8 nM
Cn1c(-c2ccc3c(c2)OCCC3NC(=O)O[C@@H]2CN3CCC2CC3)cc2ccccc21 (stereo partly drawn) [Example 52, (S)-quinuclidin-3-yl (7-(1-methyl-1H-indol-2-yl)chroman-4-yl)carbamate] | 7.06 nM | 24.8 nM

Reference: patent US12673944B2, “Compounds having inhibitory activity against glucosylceramide synthase or pharmaceutically acceptable salt thereof, processes for preparing the same, and pharmaceutical compositions comprising the same” (YUHAN CORPORATION, priority 2019, dated 2026)
